Reference: patent US20180071317A1, “USE OF AGENTS THAT ALTER THE PERITUMORAL ENVIRONMENT FOR THE TREATMENT OF CANCER” (SERVICIO ANDALUZ DE SALUD, priority 2011, published 2018)

Assays:
[1] = tested on: human primary fibroblasts (PHF); test: Marker expression (immunohistochemistry) in human primary fibroblasts with SP alone or with NK1 antagonists; assay type: cell-based; settings: SP 1 μM + antagonist 1 μM; 48 h;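 note: primary human dermal fibroblasts, immunostained with rabbit polyclonal antibodies against each marker, value is percentage of stained cells among all cells counted in 20 fields at 400× per section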
[2] = tested on: fibroblasts (PHF) co-cultured with tumor cells of lung carcinoma (A-427); test: Marker expression (IHC) in PHF co-cultured with A-427 tumor cells; assay type: cell-based, human; settings: co-culture with A-427 lung carcinoma; SP 1 μM + antagonist 1 μM; 48 h;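 note: cultures grown in human blood plasma from a healthy donor, value is the percentage of fibroblasts positive for each marker, six replicates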
Experimental: (§1) All cultures were maintained 48 hours, following which the same cells were included in paraffin blocks for subsequent analysis of the expression of different markers by immunohistochemistry (see Example 1). […] All experiments were carried out sixfold. Analyzed markers in fibroblast cells (stromal cells) were: TGF-α, TGF-β1, TGF-β2, TGF-β3, SPARC, MMP-3, MMP-7, MMP-9, MMP-11, MMP-13 and MMP-14.

[3] = tested on: fibroblasts (PHF) co-cultured with tumor cells in human prostate carcinoma (22Rv1); test: Marker expression (IHC) in PHF co-cultured with 22Rv1 tumor cells; assay type: cell-based; settings: co-culture with 22Rv1; SP 1 μM + antagonist 1 μM; 48 h;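 note: cultures grown on fresh plasma from a healthy donor, each experiment run sixfold, values give the percentage of fibroblasts positive for the given marker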
Experimental: as §1

[4] = tested on: fibroblasts of tumors produced by tumor cell line of human melanoma (MEL HO); test: Marker expression (IHC) in fibroblasts of tumor or peritumoral area, mouse model, MEL HO; assay type: in vivo; settings: MEL HO tumors in mice, 30 mg/kg/day oral, 7 days
Experimental: In vitro tests conducted in Example 5 are now carried out in an experimental model in mice in vivo. […] Subsequently, the expression in fibroblasts tumoral and peritumoral area of molecular markers associated with progression and maintenance of tumors: TGF-α, TGF-β1, TGF-β2, TGF-β3, MMP-7, MMP-11, MMP-14 were analyzed by immunohistochemistry.
Were injected with 2×10^7 cells tumors (corresponding, in each case to each of the tumor types as specified in Table 9) in 200 of PBS subcutaneously μl. […] Mice were randomized into two groups when the tumors reached a volume of 75 mm^3 One group was treated with non-peptide receptor antagonists NK1 and the other with placebo 200μ1. […] Tumors and samples of non-neoplastic stromal areas remote from the tumor were halved, formalin fixed (4%) and then were included in paraffin blocks for analysis by immunohistochemistry.
The expression on fibroblast cells obtained in the animal model was analyzed by immunohistochemistry, of the above markers: TGF-α, TGF-β1, TGF-β2, TGF-β3, MMP-7, MMP-1 1, MMP-14MP-14. Tables 32 to 35 depict the type of label used and the average percentage of fibroblasts present in non-tumor areas, tumor and peritumoral (±SD) which were expressing the marker shown in each of the tumor types developed from of the different cell lines used. This process was realized in mice treated with non-peptide antagonists of NK1 receptor and in untreated animals (control).

[5] = tested on: tumors from the tumor cell lines of Table 9; test: Mean tumor volume in nude mice injected subcutaneously with human tumor cells; settings: 30 mg/kg/day oral, 7 days
[6] = tested on: fibroblasts (PHF) co-cultured with human melanoma tumor cells (MEL-HO1); test: Marker expression (IHC) in PHF co-cultured with MEL-HO1 tumor cells; assay type: cell-based; settings: PHF co-cultured with MEL-HO1 + SP + NK1 antagonist;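 note: values are the percentage of fibroblasts positive for each marker, with cultures grown in fresh healthy-donor blood plasma and each experiment run six times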
Experimental: as §1

[7] = tested on: fibroblasts (PHF) co-cultured with tumor cells of human endometrial carcinoma (AN3-CA); test: Marker expression (IHC) in PHF co-cultured with AN3-CA tumor cells; assay type: cell-based; settings: co-culture with AN3-CA; SP 1 μM + antagonist 1 μM; 48 h;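 note: cultured in fresh healthy-donor blood plasma with added antibiotic-antimycotic, run in six replicates, values give percent of fibroblasts positive for each marker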
Experimental: as §1

## CC(=O)N1CCN([C@H]2CCN(C(=O)N(C)[C@H](C)c3cc(C(F)(F)F)cc(C(F)(F)F)c3)[C@@H](c3ccc(F)cc3C)C2)CC1 [Casopitant]
[1]
  PHF cells expressing MMP-3: 0%
  PHF cells expressing MMP-7: 0%
  PHF cells expressing MMP-9: 0%
  PHF cells expressing MMP-11: 0%
  PHF cells expressing MMP-13: 0%
  PHF cells expressing MMP-14: 0%
  PHF cells expressing SPARC: 0%
  PHF cells expressing TGFα: 0%
  PHF cells expressing TGFβ 1: 0%
  PHF cells expressing TGFβ 2: 0%
  PHF cells expressing TGFβ 3: 0%
[2]
  PHF cells expressing MMP-3: 0%
  PHF cells expressing MMP-7: 0%
  PHF cells expressing MMP-9: 0%
  PHF cells expressing MMP-11: 0%
  PHF cells expressing MMP-13: 0%
  PHF cells expressing MMP-14: 0%
  PHF cells expressing SPARC: 0%
  PHF cells expressing TGF-α: 0%
  PHF cells expressing TGF-β1: 0%
  PHF cells expressing TGF-β2: 0%
  PHF cells expressing TGF-β3: 0%
[3]
  PHF cells expressing MMP-3: 0%
  PHF cells expressing MMP-7: 0%
  PHF cells expressing MMP-9: 0%
  PHF cells expressing MMP-11: 0%
  PHF cells expressing MMP-13: 0%
  PHF cells expressing MMP-14: 0%
  PHF cells expressing SPARC: 0%
  PHF cells expressing TGF-α: 0%
  PHF cells expressing TGF-β1: 0%
  PHF cells expressing TGF-β2: 0%
  PHF cells expressing TGF-β3: 0%
[4]
  fibroblasts expressing MMP-7: 0%
  fibroblasts expressing MMP-11: 0%
  fibroblasts expressing MMP-14: 0%
  fibroblasts expressing TGF-α: 0%
  fibroblasts expressing TGF-β 1: 0%
  fibroblasts expressing TGF-β 2: 0%
  fibroblasts expressing TGF-β 3: 0%
[5]; B lymphoblastic leukemia (peripheral human B lymphoblastoid cells) SD1
  Mean tumor volume: 109 ± 8
[5]; Carcinoma of human non-small cell lung COR-L23
  Mean tumor volume: 119 ± 5
[5]; Carcinoma of human non-small cell lung H-1963
  Mean tumor volume: 97 ± 3
[5]; Carcinoma of human non-small cell lung HCC-44
  Mean tumor volume: 101 ± 8
[5]; Carcinoma of human small cell lung H-209
  Mean tumor volume: 114 ± 7
[5]; Carcinoma of human urinary bladder 5637
  Mean tumor volume: 100 ± 2
[5]; Human B lymphoma BC-1
  Mean tumor volume: 83 ± 11
[5]; Human Burkitt lymphoma CA-46
  Mean tumor volume: 94 ± 9
[5]; Human Fibrosarcoma HT-1080
  Mean tumor volume: 89 ± 4
[5]; Human Hodgkin lymphoma KM-H2
  Mean tumor volume: 86 ± 7
[5]; Human Rhabdomyosarcoma A-204
  Mean tumor volume: 98 ± 5
[5]; Human T-cell leukemia/NK YT
  Mean tumor volume: 102 ± 7
[5]; Human T-lymphoma DERL human Hodgkin 7Linfoma KM-H2
  Mean tumor volume: 97 ± 6
[5]; Human breast adenocarcinoma humano MCF-7
  Mean tumor volume: 86 ± 8
[5]; Human breast carcinoma MDA-MB-468
  Mean tumor volume: 77 ± 9
[5]; Human breast carcinoma MT-3
  Mean tumor volume: 87 ± 12
[5]; Human choriocarcinoma AC-1M32
  Mean tumor volume: 84 ± 1
[5]; Human colon carcinoma SW-403
  Mean tumor volume: 78 ± 7
[5]; Human endometrial carcinoma AN3-CA
  Mean tumor volume: 82 ± 3
[5]; Human endometrial stromal sarcoma ESS-1
  Mean tumor volume: 101 ± 5
[5]; Human folicular thyroid carcinoma TT2609-C02
  Mean tumor volume: 112 ± 5
[5]; Human gastric adenocarcinoma 23132/87
  Mean tumor volume: 83 ± 4
[5]; Human glioma GAMG
  Mean tumor volume: 102 ± 4
[5]; Human lung carcinoma A-427
  Mean tumor volume: 102 ± 8
[5]; Human lung carcinoma DV-90
  Mean tumor volume: 99 ± 5
[5]; Human lymphoblastic leukemia T BE-13
  Mean tumor volume: 101 ± 4
[5]; Human malignant fibrous histiocytoma U-2197
  Mean tumor volume: 107 ± 2
[5]; Human melanoma MEL HO
  Mean tumor volume: 102 ± 9
[5]; Human multiple myeloma COLO-677
  Mean tumor volume: 104 ± 6
[5]; Human neuroblastoma KELLY
  Mean tumor volume: 112 ± 5
[5]; Human neuroblastoma bone marrow SKN-BE 2
  Mean tumor volume: 103 ± 4
[5]; Human osteosarcoma CAL-72
  Mean tumor volume: 106 ± 7
[5]; Human ovarian adenocarcinoma EFO-27
  Mean tumor volume: 88 ± 6
[5]; Human ovarian carcinoma COLO-704
  Mean tumor volume: 97 ± 6
[5]; Human pancretic adenocarcinoma CAPAN-1
  Mean tumor volume: 73 ± 8
[5]; Human pancretic adenocarcinoma PA-TU 8902
  Mean tumor volume: 75 ± 6
[5]; Human papillary thyroid carcinoma metastasizing B-CPAP
  Mean tumor volume: 106 ± 4
[5]; Human prostate carcinoma 22RV1
  Mean tumor volume: 98 ± 4
[5]; Human retinoblastoma WERI-Rb-1
  Mean tumor volume: 101 ± 5
[5]; Human thyroid carcinoma 8505C
  Mean tumor volume: 99 ± 9
[5]; Human uterine cervix carcinoma KB
  Mean tumor volume: 112 ± 1
[5]; Melanoma humano, metástasis en ganglio linfático COLO 858
  Mean tumor volume: 99 ± 5
[5]; Sarcoma human Edwing MHH-ES-1
  Mean tumor volume: 97 ± 9
[5]; Transitional Carcinoma of human urinary bladder RT-4
  Mean tumor volume: 101 ± 3
[6]
  cells expressing MMP-3: 0%
  cells expressing MMP-7: 0%
  cells expressing MMP-9: 0%
  cells expressing MMP-11: 0%
  cells expressing MMP-13: 0%
  cells expressing MMP-14: 0%
  cells expressing SPARC: 0%
  cells expressing TGF-α: 0%
  cells expressing TGF-β1: 0%
  cells expressing TGF-β2: 0%
  cells expressing TGF-β3: 0%
[7]
  PHF cells expressing MMP-3: 0%
  PHF cells expressing MMP-7: 0%
  PHF cells expressing MMP-9: 0%
  PHF cells expressing MMP-11: 0%
  PHF cells expressing MMP-13: 0%
  PHF cells expressing MMP-14: 0%
  PHF cells expressing SPARC: 0%
  PHF cells expressing TGF-α: 0%
  PHF cells expressing TGF-β1: 0%
  PHF cells expressing TGF-β2: 0%
  PHF cells expressing TGF-β3: 0%
